{"source": "patent US20070101445A1", "about": "“Transgenic mice carrying the HP-2 gene and uses as models for vascular diseases” (priority 2005, published 2007)", "key": {"Hp 0 mice": {"tested_on": "Hp 0 mice", "experiment": "Chronic supplementation with vitamin E, renal hypertrophy in Hp 0 mice", "type": "in vivo, mouse", "procedure": "(§1) Chronic supplementation with vitamin E. Wild-type or Hp 0 mice (n=5 in each group) were treated for 7 months with placebo (water) or vitamin E (Merck, racemic alpha-tocopherol acetate) at a concentration of 40 mg/kg/day administered daily in the drinking water from 4 weeks of age.\n(§2) Preparation of renal tissue for morphometric and histochemical analysis. Mice were sacrificed with intraperitoneal injection of pentabarbitone sodium. Kidneys were excised and weighed and the half-middle portion was fixed in 4% buffered BP formaldehyde solution (Gadot, Netanya, Israel) and embedded in paraffin. For both the morphometric and histochemical analysis, there were four mice in each of the six groups (wild type, Hp 0, and Hp 2, with and without diabetes).\n(§3) Statistical analysis. Values are reported as the mean±SEM. Comparisons between groups were performed using two-way ANOVA under a general linear model, with Hp phenotype as one factor and time, presence of diabetes, or treatment with vitamin E as the second factor. Pairwise comparisons were carried out using the Fisher's protected least significant difference (PLSD) test. A p-value of less than 0.05 was taken as being statistically significant. Statistical analyses were performed using the SPSS statistical software version 11.5 (Chicago, Ill.). […]"}, "Wild-type mice": {"tested_on": "Wild-type mice", "experiment": "Chronic supplementation with vitamin E, renal mass in wild-type mice", "type": "in vivo, mouse", "conditions": "WT mice, 40 mg/kg/day vitamin E orally from 4 weeks, sacrificed at 8 months, mean±SEM, n=5", "procedure": "as §1, §2, §3"}}, "data": [{"smiles": "CC(=O)Oc1c(C)c(C)c2c(c1C)CC[C@@](C)(CCC[C@H](C)CCC[C@H](C)CCCC(C)C)O2", "note": "(racemic) [Vitamin E, racemic alpha-tocopherol acetate]", "values": [{"measurement": "RM/BM (renal mass normalized for body weight)", "setting": "Hp 0 mice; 40 mg/kg/day vitamin E orally from 4 weeks, sacrificed at 8 months, mean±SEM, n=5", "result": "11.01 ± 0.24", "unit": "mg/g"}, {"measurement": "renal mass in Hp 0 animals receiving vitamin E compared to Hp 0 mice who did not receive vitamin E", "setting": "Hp 0 mice; vitamin E for 7 months", "result": "reduced"}, {"measurement": "RM/BM (renal mass normalized for body weight)", "setting": "Wild-type mice", "result": "11.42 ± 0.98", "unit": "mg/g"}]}]}
